≈ marks a conversion by molar mass, not a printed value.
What was measured:
Type in all cases: functional
Bemisia tabaci [1] = assay: Cross resistant, ratio of LC50 for B-biotype thiamethoxam-resistant Bemisia tabaci (sweet potato whitefly) to LC50 for B-biotype thiamethoxam-sensitive Bemisia tabaci (sweet potato whitefly)
Bemisia tabaci [2] = assay: Insecticidal activity against B-biotype thiamethoxam-sensitive Bemisia tabaci (sweet potato whitefly) in cabbage leaf assessed as mortality after 48 hr by leaf disk assay; conditions: foliar
Bemisia tabaci [3] = assay: Insecticidal activity against B-biotype thiamethoxam-resistant Bemisia tabaci (sweet potato whitefly) in cabbage leaf assessed as mortality after 48 hr by leaf disk assay; conditions: foliar
Bemisia tabaci [4] = assay: Synergism ratio, Ratio of LC50 for B-biotype thiamethoxam-resistant Bemisia tabaci (sweet potato whitefly) to LC50 for B-biotype thiamethoxam-resistant Bemisia tabaci (sweet potato whitefly) in presence of piperonyl butoxide
Bemisia tabaci [5] = assay: Resistant ratio, ratio of LC50 for T33 generation of B-biotype Bemisia tabaci (sweet potato whitefly) to LC50 for B-biotype Bemisia tabaci (sweet potato whitefly)
Bemisia tabaci [6] = assay: Synergism ratio, Ratio of LC50 for B-biotype thiamethoxam-sensitive Bemisia tabaci (sweet potato whitefly) to LC50 for B-biotype thiamethoxam-sensitive Bemisia tabaci (sweet potato whitefly) in presence of diethylmaleate
Bemisia tabaci [7] = assay: Insecticidal activity against T30 generation of B-biotype Bemisia tabaci (sweet potato whitefly) in cabbage leaf assessed as mortality after 48 hr by leaf disk assay; conditions: foliar
Bemisia tabaci [8] = assay: Synergism ratio, Ratio of LC50 for B-biotype thiamethoxam-resistant Bemisia tabaci (sweet potato whitefly) to LC50 for B-biotype thiamethoxam-resistant Bemisia tabaci (sweet potato whitefly) in presence of diethylmaleate
Bemisia tabaci [9] = assay: Insecticidal activity against B-biotype thiamethoxam-sensitive Bemisia tabaci (sweet potato whitefly) in cabbage leaf assessed as mortality after 48 hr by leaf disk assay in presence of triphenyl phosphate; conditions: foliar
Bemisia tabaci [10] = assay: Resistant ratio, ratio of LC50 for T17 generation of B-biotype Bemisia tabaci (sweet potato whitefly) to LC50 for B-biotype Bemisia tabaci (sweet potato whitefly)
Bemisia tabaci [11] = assay: Insecticidal activity against B-biotype thiamethoxam-resistant Bemisia tabaci (sweet potato whitefly) in cabbage leaf assessed as mortality after 48 hr by leaf disk assay in presence of triphenyl phosphate; conditions: foliar
Bemisia tabaci [12] = assay: Synergism ratio, Ratio of LC50 for B-biotype thiamethoxam-resistant Bemisia tabaci (sweet potato whitefly) to LC50 for B-biotype thiamethoxam-resistant Bemisia tabaci (sweet potato whitefly) in presence of triphenyl phosphate
Bemisia tabaci [13] = assay: Synergism ratio, Ratio of LC50 for B-biotype thiamethoxam-sensitive Bemisia tabaci (sweet potato whitefly) to LC50 for B-biotype thiamethoxam-sensitive Bemisia tabaci (sweet potato whitefly) in presence of piperonyl butoxide
Bemisia tabaci [14] = assay: Insecticidal activity against B-biotype thiamethoxam-resistant Bemisia tabaci (sweet potato whitefly) in cabbage leaf assessed as mortality after 48 hr by leaf disk assay in presence of diethylmaleate; conditions: foliar
Bemisia tabaci [15] = assay: Insecticidal activity against T28 generation of B-biotype Bemisia tabaci (sweet potato whitefly) in cabbage leaf assessed as mortality after 48 hr by leaf disk assay; conditions: foliar
Bemisia tabaci [16] = assay: Synergism ratio, Ratio of LC50 for B-biotype thiamethoxam-sensitive Bemisia tabaci (sweet potato whitefly) to LC50 for B-biotype thiamethoxam-sensitive Bemisia tabaci (sweet potato whitefly) in presence of triphenyl phosphate
Bemisia tabaci [17] = assay: Resistant ratio, ratio of LC50 for T28 generation of B-biotype Bemisia tabaci (sweet potato whitefly) to LC50 for B-biotype Bemisia tabaci (sweet potato whitefly)
Bemisia tabaci [18] = assay: Insecticidal activity against T33 generation of B-biotype Bemisia tabaci (sweet potato whitefly) in cabbage leaf assessed as mortality after 48 hr by leaf disk assay; conditions: foliar
Bemisia tabaci [19] = assay: Insecticidal activity against B-biotype thiamethoxam-resistant Bemisia tabaci (sweet potato whitefly) in cabbage leaf assessed as mortality after 48 hr by leaf disk assay in presence of piperonyl butoxide; conditions: foliar
Bemisia tabaci [20] = assay: Insecticidal activity against B-biotype Bemisia tabaci (sweet potato whitefly) in cabbage leaf assessed as mortality after 48 hr by leaf disk assay; conditions: foliar
Bemisia tabaci [21] = assay: Resistant ratio, ratio of LC50 for T30 generation of B-biotype Bemisia tabaci (sweet potato whitefly) to LC50 for B-biotype Bemisia tabaci (sweet potato whitefly)
Bemisia tabaci [22] = assay: Insecticidal activity against T17 generation of B-biotype Bemisia tabaci (sweet potato whitefly) in cabbage leaf assessed as mortality after 48 hr by leaf disk assay; conditions: foliar
Bemisia tabaci [23] = assay: Insecticidal activity against B-biotype thiamethoxam-sensitive Bemisia tabaci (sweet potato whitefly) in cabbage leaf assessed as mortality after 48 hr by leaf disk assay in presence of diethylmaleate; conditions: foliar
Bemisia tabaci [24] = assay: Insecticidal activity against B-biotype thiamethoxam-sensitive Bemisia tabaci (sweet potato whitefly) in cabbage leaf assessed as mortality after 48 hr by leaf disk assay in presence of piperonyl butoxide; conditions: foliar

## CC[C@H](C)[C@H]1O[C@]2(C=C[C@@H]1C)C[C@@H]1C[C@@H](C/C=C(\C)[C@@H](O[C@H]3C[C@H](OC)[C@@H](O[C@H]4C[C@H](OC)[C@@H](O)[C@H](C)O4)[C@H](C)O3)[C@@H](C)/C=C/C=C3\CO[C@@H]4[C@H](O)C(C)=C[C@@H](C(=O)O1)[C@]34O)O2.CO[C@H]1C[C@H](O[C@H]2[C@H](C)O[C@@H](O[C@@H]3/C(C)=C/C[C@@H]4C[C@@H](C[C@]5(C=C[C@H](C)[C@@H](C(C)C)O5)O4)OC(=O)[C@@H]4C=C(C)[C@@H](O)[C@H]5OC/C(=C\C=C\[C@@H]3C)[C@]54O)C[C@@H]2OC)O[C@@H](C)[C@@H]1O [ABAMECTIN]
Bemisia tabaci [1]
  RatioLC50: 5.33
Bemisia tabaci [2]
  LC50: 0.12 µg/mL
Bemisia tabaci [3]
  LC50: 0.64 µg/mL

## C/C(=N\C#N)N(C)Cc1ccc(Cl)nc1 [ACETAMIPRID]
Bemisia tabaci [1]
  RatioLC50: 35.8
Bemisia tabaci [2]
  LC50: 1.98 µg/mL (≈ 8.89 µM)
Bemisia tabaci [3]
  LC50: 70.9 µg/mL (≈ 318 µM)

## CCCCN(CCCC)SN(C)C(=O)Oc1cccc2c1OC(C)(C)C2 [CARBOSULFAN]
Bemisia tabaci [1]
  RatioLC50: 4.43
Bemisia tabaci [2]
  LC50: 441 µg/mL (≈ 1160 µM)
Bemisia tabaci [3]
  LC50: 1960 µg/mL (≈ 5140 µM)

## CCOP(=S)(OCC)Oc1nc(Cl)c(Cl)cc1Cl [CHLORPYRIFOS]
Bemisia tabaci [1]
  RatioLC50: 1.03
Bemisia tabaci [2]
  LC50: 601 µg/mL (≈ 1710 µM)
Bemisia tabaci [3]
  LC50: 621 µg/mL (≈ 1770 µM)

## CC1(C)[C@H](C(=O)O[C@H](C#N)c2cccc(Oc3ccccc3)c2)[C@@H]1C=C(Br)Br [DELTAMETHRIN]
Bemisia tabaci [1]
  RatioLC50: 1.16
Bemisia tabaci [2]
  LC50: 701 µg/mL (≈ 1390 µM)
Bemisia tabaci [3]
  LC50: 810 µg/mL (≈ 1600 µM)

## N#Cc1nn(-c2c(Cl)cc(C(F)(F)F)cc2Cl)c(N)c1[S+]([O-])C(F)(F)F (stereo not drawn) [FIPRONIL]
Bemisia tabaci [1]
  RatioLC50: 1.08
Bemisia tabaci [2]
  LC50: 4.11 µg/mL (≈ 9.4 µM)
Bemisia tabaci [3]
  LC50: 4.45 µg/mL (≈ 10.2 µM)

## O=[N+]([O-])/N=C1\NCCN1Cc1ccc(Cl)nc1 [IMIDACLOPRID]
Bemisia tabaci [1]
  RatioLC50: 47.3
Bemisia tabaci [2]
  LC50: 8.72 µg/mL (≈ 34.1 µM)
Bemisia tabaci [3]
  LC50: 412 µg/mL (≈ 1610 µM)

## CCN(Cc1ccc(Cl)nc1)/C(=C/[N+](=O)[O-])NC [NITENPYRAM]
Bemisia tabaci [1]
  RatioLC50: 9.99
Bemisia tabaci [2]
  LC50: 2.22 µg/mL (≈ 8.2 µM)
Bemisia tabaci [3]
  LC50: 22.2 µg/mL (≈ 82 µM)

## CN1COCN(Cc2cnc(Cl)s2)/C1=N\[N+](=O)[O-] [THIAMETHOXAM]
Bemisia tabaci [4]
  RatioLC50: 3.14
Bemisia tabaci [5]
  RatioLC50: 66.3
Bemisia tabaci [1]
  RatioLC50: 25.6
Bemisia tabaci [6]
  RatioLC50: 0.95
Bemisia tabaci [7]
  LC50: 451 µg/mL (≈ 1550 µM)
Bemisia tabaci [8]
  RatioLC50: 0.99
Bemisia tabaci [2]
  LC50: 17.6 µg/mL (≈ 60.3 µM)
Bemisia tabaci [9]
  LC50: 17.6 µg/mL
Bemisia tabaci [10]
  RatioLC50: 9.62
Bemisia tabaci [11]
  LC50: 189 µg/mL
Bemisia tabaci [12]
  RatioLC50: 2.37
Bemisia tabaci [13]
  RatioLC50: 1.17
Bemisia tabaci [14]
  LC50: 452 µg/mL
Bemisia tabaci [15]
  LC50: 334 µg/mL (≈ 1140 µM)
Bemisia tabaci [16]
  RatioLC50: 1
Bemisia tabaci [17]
  RatioLC50: 19
Bemisia tabaci [18]
  LC50: 1160 µg/mL (≈ 3990 µM)
Bemisia tabaci [19]
  LC50: 143 µg/mL
Bemisia tabaci [20]
  LC50: 17.6 µg/mL (≈ 60.3 µM)
Bemisia tabaci [21]
  RatioLC50: 25.6
Bemisia tabaci [22]
  LC50: 169 µg/mL (≈ 579 µM)
Bemisia tabaci [3]
  LC50: 450 µg/mL (≈ 1540 µM)
Bemisia tabaci [23]
  LC50: 18.5 µg/mL
Bemisia tabaci [24]
  LC50: 15 µg/mL
